Measurements: patent publication US11192860B2, “Co-crystal of an orally available HIF prolyl hydroxylase inhibitor” (Sandoz AG, priority 2017, dated 2021)
One block for each compound: values may come before it.

Experiments:
[1] = FIGS. 4, 6 and 8 of WO 2014/014835 A2; cited from earlier work
[2] = TGA curves of WO 2014/014835 A2; cited from earlier work
[3] = Powder dissolution in phosphate buffer pH 6 at 25° C., concentration by HPLC; assay type: physicochemical; conditions: phosphate buffer pH 6, 25° C.
Description: Powder dissolution experiments were carried out in phosphate buffer pH 6 at 25° C. for form A of roxadustat and the L-proline co-crystal of the present invention. The respective concentrations were determined by HPLC at a wavelength of 254 nm.

[4] = Stability against temperature and moisture (40° C., 75% RH, PXRD); assay type: physicochemical; conditions: 75% relative humidity, 7 days
[5] = Stability against pressure (IR press, PXRD); assay type: physicochemical; conditions: pressed to a pellet at about 100 kN, ground again
From the text: The pellet was ground again in order to obtain a powder, which was then investigated by PXRD.

[6] = Stability against mechanical stress (dry grinding, PXRD); assay type: physicochemical; conditions: dry ground 20 minutes, 25 vibrations per second
Description: A 1.5 mL grinding jar with one ball (5 mm diameter) both made of stainless steel was fed with about 70 mg sample and ground for 20 minutes at a frequency of 25 vibrations per second.

[7] = Differential scanning calorimetry (thermal stability); assay type: physicochemical; conditions: 25 to 250° C. at 10 K/min
Description: The roxadustat L-proline co-crystal according to the present invention was investigated by DSC, which was performed on a Mettler Polymer DSC R instrument. The sample (2.72 mg) was heated in a 40 microliter aluminium pan with a pierced aluminium lid from 25 to 250° C. at a rate of 10 K/min. Nitrogen (purge rate 50 mL/min) was used as purge gas.

[8] = Thermogravimetric analysis (mass loss on heating); assay type: physicochemical; conditions: 10 K/min
Description: The sample (16.28 mg) was heated in a 100 microliter aluminum pan closed with an aluminum lid. The lid was automatically pierced at the beginning of the measurement. The sample was heated from 25 to 250° C. at a rate of 10 K/min. Nitrogen (purge rate 50 mL/min) was used as purge gas.
For example mass losses of only about 0.1 weight % up to a temperature of about 180° C., about 0.2 weight % up to a temperature of about 190° C. and about 0.3 weight % up to a temperature of about 200° C. were observed, which further proves the presence of an anhydrous and non-solvated co-crystal.

Compound: Cc1nc(C(=O)NCC(=O)O)c(O)c2ccc(Oc3ccccc3)cc12.Cc1nc(C(=O)NCC(=O)O)c(O)c2ccc(Oc3ccccc3)cc12.O [form B]
phase transformation during DSC experiments [1]: at least partially transform to form A
solvent/water loss upon heating (TGA) [2]: readily lose their solvents/water upon heating

time after which the complex falls apart in aqueous solution into its pure components [3]: about 5 minutes
Concentration roxadustat (dissolution profile) ([3]; 1 min, listed as roxadustat L-prolin co-crystal): 660 µg/mL
Concentration roxadustat (dissolution profile) ([3]; 5 min, listed as roxadustat L-prolin co-crystal): 30 µg/mL
Concentration roxadustat (dissolution profile) ([3]; 15 min, listed as roxadustat L-prolin co-crystal): 20 µg/mL
Concentration roxadustat (dissolution profile) ([3]; 30 min, listed as roxadustat L-prolin co-crystal): 40 µg/mL
Concentration roxadustat (dissolution profile) ([3]; 60 min, listed as roxadustat L-prolin co-crystal): 100 µg/mL
Concentration roxadustat (dissolution profile) ([3]; 180 min, listed as roxadustat L-prolin co-crystal): 90 µg/mL
phase changes according to powder X-ray diffraction [4]: no phase changes occurred
phase changes according to powder X-ray diffraction [5]: no phase changes occured
phase changes according to powder X-ray diffraction [6]: no phase changes occured
TGA mass loss ([8]; up to about 180° C.): about 0.1 weight %
TGA mass loss ([8]; up to about 190° C.): about 0.2 weight %
TGA mass loss ([8]; up to about 200° C.): about 0.3 weight %
Compound: Cc1nc(C(=O)NCC(=O)O)c(O)c2ccc(Oc3ccccc3)cc12 [roxadustat L-proline co-crystal]
thermal events in DSC until melting [7]: neither phase changes nor desolvation events are detectable until the sample melts

Concentration roxadustat (dissolution profile) ([3]; 1 min): 30 µg/mL
Concentration roxadustat (dissolution profile) ([3]; 5 min): 50 µg/mL
Concentration roxadustat (dissolution profile) ([3]; 15 min): 60 µg/mL
Concentration roxadustat (dissolution profile) ([3]; 30 min): 50 µg/mL
Concentration roxadustat (dissolution profile) ([3]; 60 min): 60 µg/mL
Concentration roxadustat (dissolution profile) ([3]; 180 min): 70 µg/mL
Compound: Cc1nc(C(=O)NCC(=O)O)c(O)c2ccc(Oc3ccccc3)cc12 [roxadustat form A, [(4-hydroxy-1-methyl-7-phenoxyisoquinoline-3-carbonyl)amino]acetic acid, reference compound]
